Read-outs that look alike come from different tables or passages of the source.
Columns and labels:
KRAS and MEN1 expression = test: RNA-seq gene expression in MiaPaCa-2 cells; assay type: cell-based, human; set-up: dose or concentration left out as unconfirmed; details: MiaPaCa-2 cells after twenty-four hours
Procedure: MOLM-13 and MiaPaCa-2 cells were incubated with Compound A for twenty-four hours and were analyzed by RNA-seq on an Illumina NextSeq 550 platform. […] Cell viability was measured using CellTiterGlo. Human ex vivo PDX tissue models harboring KRAS mutations were cultured with Compound A and clinical reversible menin inhibitors for six days. Cell viability was measured using CellTiter Glo.

[1] = test system: human pancreatic islet beta cells; test: Beta cell proliferation in human islet microtissues (Examples 107, 110); assay type: cell-based
Procedure: Human islet microtissues were aggregated for 5 days and then released into ultra-low attachment plates. Half of the plates were maintained in standard culture medium (5.5 mM glucose), and half were cultured in high-glucose culture medium (GTX, 8 mM glucose) starting at Day 6, for the duration of the whole experiment. Starting on Day 9 (after 3 days of GTX pre-treatment for the relevant plates), dosing with compounds was initiated, using a Tecan D300e Digital Dispenser. DMSO was normalized by volume across all wells. Media were exchanged and compounds were redosed every 2-3 days throughout the experiment. Compound dosing was randomized; to avoid compound cross-contamination between wells, all medium exchanges were performed using 96-well deep well plates with pipette tip exchange.
FIG. 38 provides human pancreatic islet beta cell proliferation on Day 14 and Day 21. In FIG. 38, A is ATP content; B is proliferating beta cell fraction; and C is beta cell fraction. Upper graphs are standard media, and lower graphs are high glucose media. Data represents mean+−SEM of 1 donor with n=4-10 technical replicates. One-way ANOVA with Dunnet's posthoc test to DMSO control. * p<0.05; ** p<0.01; and *** p<0.001.
The ability of menin-MLL inhibitors to induce beta-cell (β-cell) proliferation is tested on human islet microtissue preparations (InSphero). Briefly, human islet microtissues are produced by enzymatic dissociation of the primary islet cells followed by controlled scaffold-free hanging-drop-based self-reaggregation of the islet cells (Misun et al., 2020, Adv. Biosyst. 2020, 4, 1900291). The process helps eliminate contaminating exocrine cells, while enabling homogenous and native-like distribution of endocrine cells within each islet microtissue. […]
Effects of the compound on beta cell function and proliferation were monitored following culturing of the islets in the presence or absence of compound for 1, 2 or 3 weeks. Proliferation of beta cells and is monitored via immunofluorescence staining for appropriate markers. […]

[2] = test system: KRAS mutated cell lines (CRC, NSCLC, pancreatic); test: KRAS mutant cell line proliferation (CellTiter-Glo, four days); assay type: cell-based, human; details: for GI50: Homo sapiens
Procedure: The inhibitory effect on cell proliferation was investigated in the human pancreas KRAS mutated cell lines MIA PaCa-2, HuP-T4, HPAF-II, human lung KRAS mutated cell line NCI-H358, and human colon KRAS mutated cell lines SW837, SW60, and NCI-H747. […] Cells were grown by adhering to culture flasks, and maintained at 70%-80% confluency.
ATP is present in all metabolically active cells and is considered as a marker for viable cells. […] The cell proliferation assay was performed using a 96-well plate format.
Eight concentrations of test compound were assessed in duplicate for each experimental run. 100% cell proliferation is represented by the untreated cells (0.2% DMSO).
200 μL of cell suspension were added to each well of a 96-well plate.
Cell viability was measured using CellTiterGlo. […] Cell viability was measured using CellTiter Glo.

**Q.** What does the source list for C=CC(=O)N[C@@H]1CCCN(Cc2ccnc(C(=O)Nc3ccc(-c4cc5c(N6CCOCC6)ncnc5[nH]4)cc3)c2)C1 [Compound A, N-[4-[4-(4-morpholinyl)-7H-pyrrolo[2,3-d]pyrimidin-6-yl]phenyl]-4-[[3(R)-[(1-oxo-2-propen-1-yl)amino]-1-piperidinyl]methyl]-2-pyridinecarboxamide]?
**A.** KRAS and MEN1 expression levels (KRAS and MEN1 expression): marked reduction; beta-cell proliferation ([1]; glucose stress condition (8 mM glucose)): dose dependent increase; proliferating beta cell fraction ([1]; human islet microtissues, Day 14 and Day 21, compared to control): induced human pancreatic islet beta cells substantially; beta-cell proliferation ([1]; standard glucose conditions (5.5 mM glucose)): not under standard glucose conditions; GI50 ([2]; column 1: KRAS G12C, NSCLC (8), read-out: KRAS G12C GI50): 360 to 570 nM; GI50 ([2]; column 5: RAS WT, Pancreatic (4), read-out: RAS WT GI50): 430 to 830 nM; GI50 ([2]; column 8: KRAS G12D, Pancreatic (1) (second set of heads), read-out: KRAS G12D GI50): 370 to 570 nM; growth inhibition of KRAS-mutated cell lines compared to a known KRAS therapeutic ([2]; all cancer cell types tested): significantly greater growth inhibition; inhibition of growth ([2]; most of fourteen CRC, NSCLC and pancreatic KRAS mutated cell lines, four-day treatment): > 90%

From patent publication US20260232681A1, “CRYSTALLINE FORMS OF N-[4-[4-(4-MORPHOLINYL)-7H-PYRROLO[2,3-D]PYRIMIDIN-6- YL]PHENYL]-4-[[3(R)-[(L-OXO-2-PROPEN-L-YL)AMINO]-L-PIPERIDINYL]METHYL]-2-PYRIDINECARBOXAMIDE AS A COVALENT INHIBITOR OF MENIN-MLL INTERACTION” (BIOMEA FUSION, INC., priority 2023, published 2026)
